In patent publication US8772235B2, “Compounds having peptides conjugated to bone targeting moieties and methods of making and using thereof” (The Governors of the University of Alberta, priority 2009, dated 2014):

Tests used:
[1] = ELISA: anti-calcitonin antibody epitope and bone calcium binding on calcium phosphate coated plate (SMCC series); details: 1 μg/well, OD 650 nm
Procedure: sCT or sCT analogues equivalent to 1 μg/well were added in Calcium Phosphate coated Osteoclast Activity Assay Substrate plate (OCT USA, Inc.) in duplicate and the binding of BP to the calcium phosphate was allowed for 1 hours in the presence of 100 μl 100 mM Sodium Phosphate buffer pH 7. Plates were then washed three times with the same buffer containing 0.05% v/v Tween 80 (PBST). To avoid nonspecific binding, the wells were incubated with 3% w/v Bovine Serum Albumin for 1 h at room temperature. After washings, the wells were incubated with 100 μl of 1:5000 diluted rabbit anti-salmon calcitonin primary antibodies (US Biologicals, USA) for 1 h at room temperature. The wells were then washed three times with PBST and the bound antibodies were then incubated with secondary antibody, 1:5000 diluted goat anti-rabbit IgG conjugated with horseradish peroxidase (GAM-HRPO), for 1 h at room temperature. After final washings, 100 μl of 3,3′,5,5′-tetramethylbenzidine (TMB substrate) was added to each well and incubated for 15 min at room temperature. The optical density (OD) was measured at 650 nm using an ELISA Vmax kinetic microplate reader (Molecular Devices Corp., California, and USA).

[2] = system: RAW 264.7 cells; assay: MTT cytotoxicity on osteoclast precursor RAW 264.7 cells (SMCC series); assay type: cell-based; details: 100, 500 and 1000 nM sCT or equivalent, 4 hrs
Procedure: (§1) RAW 264.7 cells (ATCC VA, USA) were seeded on 96 well plates at an initial density of 2×10^4 cells/well and incubated in 200 μl GIBCO High Glucose 1× Dulbecco's Modified Eagle Medium (DMEM) (Invitrogen CA, USA) supplemented with 4.5 g/L D-Glucose, L-Glutamine, 110 mg/L Sodium Pyruvate, 10% heat inactivated fetal bovine serum (FBS) and 1% Penicillin-Streptomycin (10000 U/mL; Invitrogen) in a Thermo Fisher Scientific Water Jacketed CO2 incubator (37° C., 5% CO2).
(§2) After 72 hrs, media was replaced by 200 μl basic DMEM media without FBS and incubated for 30 minutes. […] After removing the supernatant and washing twice with phosphate buffer saline, purple formazan crystals formed were dissolved in 200 μl solubilization solution (in vitro toxicology assay kit, # TOX-1, Sigma Aldrich, St. Louis, USA) and the absorbance was measured at 570 nm using microplate reader. Experiment was performed for n=8 and the absorbance of wells containing cells without sCT treatment was considered as 100% viable and used to calculate the relative viability of sCT treated cells.
In MTT assay, mitochondrial dehydrogenases of viable cells cleave the tetrazolium ring of MTT yielding purple formazan crystals which are insoluble in aqueous solutions. They were dissolved in acidified isopropanol and the resulting purple solution was measured spectrophotometrically. […]

[3] = Effect on plasma phosphate level in normal rats (SMCC series); assay type: in vivo, rat; details: 20 IU sCT/kg equivalent, subcutaneous
Procedure: Pharmacodynamic response of sCT analogue was evaluated by analyzing plasma calcium concentration in the rat model. Sprague Dawley female rats weighing 230-260 g (about 6 weeks old) were purchased from Charles River, USA and housed at the University of Alberta Animal Holding Unit. All experimental protocols were approved by the Animals Ethics Committee of the University of Alberta. The rats were divided randomly into five groups of 3 animals each and the pharmacodynamic response was assessed following subcutaneous administration of the sCT or analogue equivalent to 20 IU sCT/kg body weight. Rats were anesthetized using Isoflurane inhalation anesthesia and the 200 μl blood samples were obtained in heparinized Eppendorf microtubes before drug injection. Then 100 μl of sCT or equivalent dose in 20 mM Sodium Acetate buffer pH 5 was sub cu injected and the blood samples were collected 1, 2, 3 and 4 hrs post injection from jugular vein. Blood plasma was obtained by centrifuging the samples at 5000 rpm for 10 min and collecting the supernatant. Plasma calcium level was assayed by QuantiChrom™ Calcium Assay Kit (BioAssay Systems, CA USA) and the plasma phosphate level was assayed by QuantiChrom™ Phosphate Assay Kit (BioAssay Systems, CA USA).

[4] = system: RAW 264.7 cells; assay: MTT cytotoxicity on osteoclast precursor RAW 264.7 cells (PEG series); assay type: cell-based, mouse; details: 100, 500 and 1000 nM sCT or equivalent, 4 hours incubation
Procedure: as §1, with “CO2) until the cells were 80% confluent.” for “CO2).”
as §2
In all in vitro and in vivo bioactivity assay the maximum concentration used was equivalent to 100 nM sCT. However, cytoxicity was determined for the concentration up to 1000 nM sCT or equivalent. […]

For “Salmon calcitonin [sCT, reference compound]”, the “detection in ELISA after binding to calcium phosphate plate” value [1] was “not significantly detected”, the “cytotoxicity (absorbance of formazan solution) compared to untreated media” value [2] was “low levels of cytotoxicity” and the “percentage of plasma phosphate reduction” value ([3]; 4 hour post dosing) was 14.69±3.71%. The “percentage of plasma phosphate reduction” value ([3]; first hour, vs acetate buffer controls) was 11.91±6.24%, the “percentage of plasma phosphate reduction” value ([3]; second hour) was 11.64±13.01% and the “cytotoxicity (absorbance of formazan solution) compared to untreated media” value [4] was “low levels of cytotoxicity”.
